These are literature values, as cited in patent US8512794B2, “Oleate ester phytosterol compositions” (Perlman Consulting, LLC, priority 2010, dated 2013).

The subject of this data set is humans.

`CC[C@H](CC[C@@H](C)[C@H]1CC[C@H]2[C@@H]3CC=C4C[C@@H](O)CC[C@]4(C)[C@H]3CC[C@]12C)C(C)C` [beta sitosterol]: the “lowering of serum cholesterol” value (12-18 g per day in divided doses, males with atherosclerosis (Faquhar et al. 1956)) was 15-20%.
Regarding `CC[C@H](CC[C@@H](C)[C@H]1CC[C@H]2[C@@H]3CC=C4C[C@@H](O)CC[C@]4(C)[C@H]3CC[C@]12C)C(C)C` [sitosterol], the “decrease of plasma cholesterol level” value (9-18 grams per day, coarse powdered form) is given as “approximately 15%”.
